In US12150447B2, “Plant growth regulator” (University of Washington, priority 2017, dated 2024):

Columns and labels:
[1] = target: T1, mutant auxin receptor (TIR1 F79G) (Arabidopsis thaliana, UniProt Q570C0, F79G); assay: Evaluation of binding to auxin receptor (yeast two-hybrid assay), mutant TIR1 F79G; conditions: for mut TIR: minimum concentration of the test compound in which the well turns blue: yeast EGY48, LacZ reporter, X-gal, 30° C. for 3 days, TIR1 F79G with AUX/IAA protein
T1 construct: expressed in transfected cells; host or cells: Saccharomyces cerevisiae strain EGY48
T1 sequence (Q570C0 whole entry F79G, one chain of several): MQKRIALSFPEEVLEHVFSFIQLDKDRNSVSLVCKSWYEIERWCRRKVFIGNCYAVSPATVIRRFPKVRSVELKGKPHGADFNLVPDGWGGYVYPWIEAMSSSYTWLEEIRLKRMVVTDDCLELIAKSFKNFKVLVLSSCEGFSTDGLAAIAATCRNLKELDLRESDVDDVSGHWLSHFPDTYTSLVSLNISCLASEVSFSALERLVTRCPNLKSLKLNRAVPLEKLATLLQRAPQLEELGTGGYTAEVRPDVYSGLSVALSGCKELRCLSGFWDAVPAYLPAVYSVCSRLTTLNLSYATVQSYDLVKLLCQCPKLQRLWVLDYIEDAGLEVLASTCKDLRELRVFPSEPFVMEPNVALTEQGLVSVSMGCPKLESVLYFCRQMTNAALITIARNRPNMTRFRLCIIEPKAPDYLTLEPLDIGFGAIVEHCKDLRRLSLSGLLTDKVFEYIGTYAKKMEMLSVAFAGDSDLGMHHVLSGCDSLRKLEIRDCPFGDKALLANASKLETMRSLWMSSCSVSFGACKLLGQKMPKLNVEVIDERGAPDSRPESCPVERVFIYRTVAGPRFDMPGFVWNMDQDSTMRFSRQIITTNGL
From the text: (§1) Test Example 1: Evaluation of Binding to Auxin Receptor (Yeast Two-Hybrid Assay
(§2) Specifically, the inventors set up the assay in the following manner.
Yeast strain EGY48 was transformed into a plasmid (pSH18-34) containing a LacZ expression cassette (LexA-operon: LacZ reporter) that is transcriptionally regulated by the LexA-operon, a plasmid derived from pGLex313 containing an expression cassette of LexA-DNA-binding domain fusion protein A (the wild-type auxin receptor: SEQ ID NO. 1, or mutant auxin receptor (TIR1 F79G) where the amino acid residue 79 (phenylalanine) in the wild-type is mutated to a glycine: SEQ ID NO. 2), and a plasmid derived from pJG4-5 containing an expression cassette of B42 transcription activator fusion protein B (AUX/IAA protein: SEQ ID NO: 3). The transformant was cultured at 30° C. on an agar plate made of yeast growth medium (minimal SD base and -His/-Trp/-Ura dropout supplement). The colonies were picked up and incubated overnight in liquid SD/-His/-Trp/-Ura medium at 30° C. Afterwards, the medium was replaced with a liquid medium composed of minimal SD/Gal/Raf base, -His/-Trp/-Ura dropout supplement, 50 mM Na-phosphate buffer (pH 7.0), […] X-gal, and various concentrations of test compounds. After incubation at 30° C. for 3 days, the medium containing yeast was transferred to a white 96-well plate (flat bottom) and observed. The lower the concentration of the test compound when blue color appears, the higher the binding between the test compound and the auxin receptor (wild type or mutant) is. Conversely, higher the concentration of test compound when the blue color appears for the first time, the lower the binding between the test compound and the auxin receptor (wild type or mutant).
(§3) In Table 1, the concentration of “wt TIR” indicates the minimum concentration of the test compound in which the well turns blue when the wild type auxin receptor is used, whereas the concentration of “mut” indicates the minimum concentration of the test compound in which the well turns blue when the mutant auxin receptor (TIR1 F79G) is used.

[2] = target: T2, wild-type auxin receptor (TIR1) (Arabidopsis thaliana, UniProt Q570C0); assay: Evaluation of binding to auxin receptor (yeast two-hybrid assay), wild-type receptor; conditions: yeast EGY48, LacZ reporter, X-gal, 30° C. for 3 days; wild type auxin receptor with AUX/IAA protein
T2 construct: expressed in transfected cells; host or cells: Saccharomyces cerevisiae strain EGY48
T2 sequence (Q570C0 1-594): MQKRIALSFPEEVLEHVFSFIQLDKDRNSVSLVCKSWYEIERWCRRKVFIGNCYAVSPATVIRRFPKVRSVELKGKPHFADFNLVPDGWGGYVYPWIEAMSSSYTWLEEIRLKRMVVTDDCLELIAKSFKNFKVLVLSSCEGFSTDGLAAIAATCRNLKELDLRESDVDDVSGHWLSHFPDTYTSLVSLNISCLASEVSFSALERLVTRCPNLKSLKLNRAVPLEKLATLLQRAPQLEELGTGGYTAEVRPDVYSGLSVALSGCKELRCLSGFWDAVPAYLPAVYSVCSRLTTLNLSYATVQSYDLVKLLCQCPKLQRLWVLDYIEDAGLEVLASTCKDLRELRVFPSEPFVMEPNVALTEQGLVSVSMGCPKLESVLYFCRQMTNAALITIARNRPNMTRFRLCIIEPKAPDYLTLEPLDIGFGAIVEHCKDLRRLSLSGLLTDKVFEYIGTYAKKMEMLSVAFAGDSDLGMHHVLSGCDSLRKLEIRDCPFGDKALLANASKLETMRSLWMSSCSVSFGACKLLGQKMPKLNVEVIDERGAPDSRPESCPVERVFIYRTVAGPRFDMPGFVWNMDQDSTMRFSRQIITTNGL
T2 sequence (Q38822 1-93 partner limits assumed): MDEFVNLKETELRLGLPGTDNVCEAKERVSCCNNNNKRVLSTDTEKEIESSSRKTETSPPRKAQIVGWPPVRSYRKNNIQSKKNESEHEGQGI
Procedure: as §1, §2
The transformant was cultured at 30° C. on an agar plate made of yeast growth medium (minimal SD base and -His/-Trp/-Ura dropout supplement). The colonies were picked up and incubated overnight in liquid SD/-His/-Trp/-Ura medium at 30° C. Afterwards, the medium was replaced with a liquid medium composed of minimal SD/Gal/Raf base, -His/-Trp/-Ura dropout supplement, 50 mM Na-phosphate buffer (pH 7.0), […] X-gal, and various concentrations of test compounds. After incubation at 30° C. for 3 days, the medium containing yeast was transferred to a white 96-well plate (flat bottom) and observed.
as §3

Compound	mut TIR: minimum concentration of the test compound in which the well turns blue [1] [µM]	wt TIR: minimum concentration of the test compound in which the well turns blue [2] [µM]	binding affinity of the mutant auxin receptor (TIR1 F79G) relative to that of the wild type auxin receptor ([1]; ratio mutant / wild type, from Table 1)
CCCCCCCOc1ccc2[nH]cc(CC(=O)O)c2c1 [MK-323, 2-(5-(heptyloxy)-1H-indol-3-yl)acetic acid]	10	100	–
Cc1ccc(-c2ccc3[nH]cc(CC(=O)O)c3c2)cc1C [MK-230, 2-(5-(3,4-dimethylphenyl)-1H-indol-3-yl)acetic acid]	0.1	10	–
Cc1ccccc1-c1ccc2[nH]cc(CC(=O)O)c2c1 [MK-189, 2-(5-(o-tolyl)-1H-indol-3-yl)acetic acid]	0.1	10	–
O=C(O)Cc1c[nH]c2ccc(-c3cc(Cl)ccc3Cl)cc12 [MK-308, 2-(5-(2,5-dichlorophenyl)-1H-indol-3-yl)acetic acid]	10	100	–
CCCCOc1ccc2[nH]cc(CC(=O)O)c2c1 [RY-215, 2-(5-(butyloxy)-1H-indol-3-yl)acetic acid, reference compound]	0.1	10	–
O=C(O)Cc1c[nH]c2ccc(-c3cc4ccccc4s3)cc12 [Compound 14, 2-(5-(Benzo[b]thiophen-2-yl)-1H-indol-3-yl)acetic acid]	0.01	>1	–
Cc1cc(C)cc(-c2ccc3[nH]cc(CC(=O)O)c3c2)c1 [MK-379, 2-(5-(3,5-dimethylphenyl)-1H-indol-3-yl)acetic acid]	1	100	–
O=C(O)Cc1c[nH]c2cc(-c3ccc4c(c3)OCO4)ccc12 [MK-247, 2-(6-(benzo[d][1,3]dioxol-5-yl)-1H-indol-3-yl)acetic acid]	0.1	10	–
Cc1cccc(-c2ccc3c(CC(=O)O)c[nH]c3c2)c1 [MK-245, 2-(6-(m-tolyl)-1H-indol-3-yl)acetic acid]	0.1	10	–
O=C(O)Cc1c[nH]c2ccc(-c3ccc(F)c(Cl)c3)cc12 [MK-255, 2-(5-(3-chloro-4-fluorophenyl)-1H-indol-3-yl)acetic acid]	1	100	–
O=C(O)Cc1c[nH]c2cc(-c3cccc(Oc4ccccc4)c3)ccc12 [MK-248, 2-(6-(3-phenoxyphenyl)-1H-indol-3-yl)acetic acid]	0.1	10	–
CCC(C)COc1ccc2[nH]cc(CC(=O)O)c2c1 (centres unmarked) [MK-322, 2-(5-(2-methylbutoxy)-1H-indol-3-yl)acetic acid]	0.1	10	–
COc1ccc(-c2ccc3[nH]cc(CC(=O)O)c3c2)cc1C [MK-214, 2-(5-(4-methoxy-3-methylphenyl)-1H-indol-3-yl)acetic acid]	10	100	–
Cc1ccc(C)c(-c2ccc3[nH]cc(CC(=O)O)c3c2)c1 [MK-221, 2-(5-(2,5-dimethylphenyl)-1H-indol-3-yl)acetic acid]	10	>100	–
Cc1ccc(COc2ccc3[nH]cc(CC(=O)O)c3c2)cc1 [MK-350, 2-(5-((4-methylbenzyl)oxy)-1H-indol-3-yl)acetic acid]	100	>100	–
CC(C)(C)c1ccc(-c2ccc3[nH]cc(CC(=O)O)c3c2)cc1 [MK-198, 2-(5-(4-(tert-butyl)phenyl)-1H-indol-3-yl) acetic acid]	10	100	–
Cc1cc(-c2ccc3[nH]cc(CC(=O)O)c3c2)ccc1F [MK-213, 2-(5-(4-fluoro-3-methylphenyl)-1H-indol-3-yl)acetic acid]	0.1	10	–
Cc1ccc(Cl)cc1-c1ccc2[nH]cc(CC(=O)O)c2c1 [MK-309, 2-(5-(5-chloro-2-methylphenyl)-1H-indol-3-yl)acetic acid]	10	100	–
O=C(O)Cc1c[nH]c2ccc(-c3ccccc3)cc12 [Example 42A, 5-(2-Phenyl)-indole-3-acetic acid]	0.01	1	–
O=C(O)Cc1c[nH]c2ccc(OCC3CCCCC3)cc12 [MK-333, 2-(5-(cyclohexylmethoxy)-1H-indol-3-yl)acetic acid]	0.1	100	–
COc1cccc(-c2ccc3[nH]cc(CC(=O)O)c3c2)c1 [Example 27B, 5-(3-methoxyphenyl)-indole-3-acetic acid]	1	100	–
O=C(O)Cc1c[nH]c2ccc(-c3ccc4c(c3)OCO4)cc12 [MK-209, 2-(5-(benzo[d][1,3]dioxol-5-yl)-1H-indol-3-yl) acetic acid]	0.1	10	–
Cc1ccc(Cl)c(-c2ccc3[nH]cc(CC(=O)O)c3c2)c1 [MK-307, 2-(5-(2-chloro-5-methylphenyl)-1H-indol-3-yl)acetic acid]	10	>100	–
CCOc1cccc(-c2ccc3[nH]cc(CC(=O)O)c3c2)c1 [MK-211, 2-(5-(3-ethoxyphenyl)-1H-indol-3-yl)acetic acid]	10	100	–
COc1ccccc1-c1ccc2[nH]cc(CC(=O)O)c2c1 [Example 27A, 5-(2-methoxyphenyl)-indole-3-acetic acid]	10	100	–
O=C(O)Cc1c[nH]c2ccccc12 [Indole-3-acetic acid, indole-3-acetic acid, reference compound]	>100	0.1	less than 1/1000
